Data: publication PMC10983009 (Journal of Medicinal Chemistry, 2024)
pIC50: −log10 of the molar value. Where “and” joins values, the source holds several entries; their conditions need not be identical. Identical values can stand only once. Like-named read-outs stand apart in the source and are kept apart here. Marks after values point to notes of the source that are not given here. Each block holds one compound with its values, some of them ahead of it.

What was measured:
[1] = compound remaining, literature value; cited from earlier work
DDR1(h) = DDR1(h) (Homo sapiens, UniProt Q08345); conditions: at 1 μM; cited from earlier work
Sequence of DDR1(h) (Q08345 19-913): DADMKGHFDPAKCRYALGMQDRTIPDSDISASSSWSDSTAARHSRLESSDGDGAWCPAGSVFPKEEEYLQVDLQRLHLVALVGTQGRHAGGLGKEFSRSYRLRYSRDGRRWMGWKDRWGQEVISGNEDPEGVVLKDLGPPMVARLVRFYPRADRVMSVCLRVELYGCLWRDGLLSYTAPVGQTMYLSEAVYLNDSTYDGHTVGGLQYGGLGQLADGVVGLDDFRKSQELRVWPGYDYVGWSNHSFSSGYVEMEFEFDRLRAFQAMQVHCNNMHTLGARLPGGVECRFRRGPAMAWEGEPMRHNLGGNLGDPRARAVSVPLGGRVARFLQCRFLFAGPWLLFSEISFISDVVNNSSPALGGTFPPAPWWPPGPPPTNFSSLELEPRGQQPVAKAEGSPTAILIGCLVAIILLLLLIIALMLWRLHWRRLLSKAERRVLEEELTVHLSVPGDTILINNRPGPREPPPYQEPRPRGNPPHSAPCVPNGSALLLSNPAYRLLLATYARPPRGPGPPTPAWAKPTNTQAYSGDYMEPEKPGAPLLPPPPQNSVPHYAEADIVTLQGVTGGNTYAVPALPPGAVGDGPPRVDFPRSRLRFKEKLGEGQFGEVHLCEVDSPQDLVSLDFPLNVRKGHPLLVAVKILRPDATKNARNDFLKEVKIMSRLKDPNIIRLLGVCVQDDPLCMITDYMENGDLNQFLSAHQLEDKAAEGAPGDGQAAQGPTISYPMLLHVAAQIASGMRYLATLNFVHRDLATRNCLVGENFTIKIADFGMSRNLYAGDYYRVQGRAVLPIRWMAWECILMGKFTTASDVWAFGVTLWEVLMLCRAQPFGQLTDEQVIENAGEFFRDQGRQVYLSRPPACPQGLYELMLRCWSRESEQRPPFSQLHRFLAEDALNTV

Caco-2 cells = conditions: literature value, cited from earlier work
TNIK(h) = TNIK(h) (Homo sapiens, UniProt Q9UKE5); conditions: at 1 μM; cited from earlier work
Sequence of TNIK(h) (Q9UKE5 whole entry): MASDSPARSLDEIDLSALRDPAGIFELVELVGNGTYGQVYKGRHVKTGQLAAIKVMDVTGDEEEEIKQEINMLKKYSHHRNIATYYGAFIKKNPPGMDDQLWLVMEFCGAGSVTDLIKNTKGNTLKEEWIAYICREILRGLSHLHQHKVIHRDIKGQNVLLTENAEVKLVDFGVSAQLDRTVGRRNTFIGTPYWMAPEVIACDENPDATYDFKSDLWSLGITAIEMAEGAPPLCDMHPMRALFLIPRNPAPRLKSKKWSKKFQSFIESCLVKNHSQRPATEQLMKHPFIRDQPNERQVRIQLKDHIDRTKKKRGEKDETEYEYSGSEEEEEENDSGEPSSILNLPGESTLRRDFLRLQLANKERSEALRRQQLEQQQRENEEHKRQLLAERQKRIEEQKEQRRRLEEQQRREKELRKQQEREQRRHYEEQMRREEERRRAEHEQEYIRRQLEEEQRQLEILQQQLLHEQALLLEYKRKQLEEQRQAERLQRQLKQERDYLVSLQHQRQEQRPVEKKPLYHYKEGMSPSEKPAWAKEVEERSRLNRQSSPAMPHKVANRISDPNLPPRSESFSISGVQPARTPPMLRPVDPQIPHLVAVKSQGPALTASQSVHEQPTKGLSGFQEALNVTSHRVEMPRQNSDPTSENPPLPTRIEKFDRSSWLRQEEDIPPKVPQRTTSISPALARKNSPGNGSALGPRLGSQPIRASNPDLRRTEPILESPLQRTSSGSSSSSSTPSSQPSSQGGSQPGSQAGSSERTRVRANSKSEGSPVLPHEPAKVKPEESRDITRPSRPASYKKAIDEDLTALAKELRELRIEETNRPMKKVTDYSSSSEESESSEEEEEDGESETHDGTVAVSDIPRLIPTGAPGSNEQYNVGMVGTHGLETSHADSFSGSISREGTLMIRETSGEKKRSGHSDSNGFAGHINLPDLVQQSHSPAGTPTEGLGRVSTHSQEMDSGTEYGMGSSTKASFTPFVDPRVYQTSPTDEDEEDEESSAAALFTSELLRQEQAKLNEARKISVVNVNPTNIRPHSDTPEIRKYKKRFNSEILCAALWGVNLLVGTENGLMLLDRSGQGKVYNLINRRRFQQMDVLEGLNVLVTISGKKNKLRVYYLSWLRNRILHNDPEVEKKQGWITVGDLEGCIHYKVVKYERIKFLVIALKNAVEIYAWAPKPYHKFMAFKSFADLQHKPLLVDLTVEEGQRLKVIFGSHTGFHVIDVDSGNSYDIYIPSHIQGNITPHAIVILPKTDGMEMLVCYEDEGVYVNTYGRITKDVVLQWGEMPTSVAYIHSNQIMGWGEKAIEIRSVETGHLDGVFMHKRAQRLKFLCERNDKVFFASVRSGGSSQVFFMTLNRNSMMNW

[2] = compound remaining, literature value; cited from earlier work; remark: listed apart in the source
[3] = In vivo PK exposure in mouse model; conditions: male, NOD-SCID, po, 25 mg/kg
[4] = Liver microsomal metabolic stability assay; format: in vitro ADME, human; conditions: compound remaining after 60 min at 37 °C, 1 μM
[5] = Liver microsomal metabolic stability assay; format: in vitro ADME, CD-1 mouse (male); conditions: compound remaining after 60 min at 37 °C, 1 μM
ALK4/ACVR1β = biological target: T1, ALK4/ACVR1β (Homo sapiens, UniProt P36896); experiment: Radiometric in vitro kinase assay
T1 sequence (P36896 24-505): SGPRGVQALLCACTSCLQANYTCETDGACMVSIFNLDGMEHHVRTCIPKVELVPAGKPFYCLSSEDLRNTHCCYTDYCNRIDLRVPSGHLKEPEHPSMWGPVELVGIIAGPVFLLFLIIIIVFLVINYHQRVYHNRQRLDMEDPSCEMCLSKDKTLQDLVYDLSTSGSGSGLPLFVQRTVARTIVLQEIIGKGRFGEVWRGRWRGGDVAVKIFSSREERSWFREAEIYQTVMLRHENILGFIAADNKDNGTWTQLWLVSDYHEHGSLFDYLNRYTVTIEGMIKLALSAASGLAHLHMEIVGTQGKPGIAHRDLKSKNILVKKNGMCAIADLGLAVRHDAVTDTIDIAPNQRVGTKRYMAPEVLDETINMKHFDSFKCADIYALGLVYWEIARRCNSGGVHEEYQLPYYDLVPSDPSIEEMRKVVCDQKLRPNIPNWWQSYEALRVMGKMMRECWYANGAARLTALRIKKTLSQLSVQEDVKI

[6] = Caco-2 permeability assay; format: in vitro ADME; conditions: human, Caco-2, pH 7.4
[7] = biological target: Full Kinase Panel (422-member kinase set); experiment: Eurofins Full Kinase Panel KinaseProfiler, whole panel; format: biochemical; conditions: at 1 μM
[8] = tested on: H3.3K27M, ACVR1^R206H mutant HSJD-DIPG-007 cells; conditions: 25 mg/kg for 28 days; cited from earlier work

concentration at 24 h [3]: 0 nM
SMILES: COc1cc(-c2cncc3c2CCOc2cc(N4CCN(C)CC4)ccc2-3)cc(OC)c1OC [Compound M4K2281, 9-(4-Methylpiperazin-1-yl)-4-(3,4,5-trimethoxyphenyl)-5,6-dihydrobenzo[2,3]oxepino[4,5-c]pyridine]

Microsomal Stability Assay HLM (%) [4]: > 70%
Microsomal Stability Assay MLM (%) [5]: > 70%
pIC50 (ALK4/ACVR1β): 5.93
recovery at 2 h, 5 μM [6]: < 15%
kinases inhibited by more than 50% [7]: 3%
SMILES: COc1cc(-c2cncc3c2CN(C)Cc2cc(N4CCNCC4)ccc2-3)cc(OC)c1OC [Compound M4K2304, 6-Methyl-9-(piperazin-1-yl)-4-(3,4,5-trimethoxyphenyl)-6,7-dihydro-5H-benzo[c]pyrido[3,4-e]azepine]

recovery at 2 h, 5 μM [6]: < 15%
SMILES: COc1cc(-c2cncc3c2CN(C)Cc2cc(N4CCN(C)CC4)ccc2-3)cc(OC)c1OC [Compound M4K2306, 6-Methyl-9-(4-methylpiperazin-1-yl)-4-(3,4,5-trimethoxyphenyl)-6,7-dihydro-5H-benzo[c]pyrido[3,4-e]azepine]

Further lines, the compound ahead of its results:

SMILES: COc1cc(-c2cncc(-c3ccc(N4CCNCC4)cc3)c2C)cc(OC)c1OC [Compound M4K2009]
Microsomal Stability Assay MLM (%) [1]: 65 ^a % and 65%
inhibition of DDR1 (DDR1(h)): almost complete inhibition
Caco-2 Permeability Assay Papp_AB (Caco-2 cells; A to B): 5.4 ^a 10^–6 cm/s
Caco-2 Permeability Assay Papp_BA (Caco-2 cells; B to A): 1.5 ^a 10^–6 cm/s
inhibition of TNIK (TNIK(h)): almost complete inhibition
Microsomal Stability Assay HLM (%) [2]: 71 ^a % and 71%

SMILES: COc1cc(-c2cc(-c3ccc(N4CCNCC4)cc3)cnc2C)cc(OC)c1OC [LDN-214117]
survival of mice bearing orthotopic xenografts [8]: extended survival
